Experimental data published in patent US9303033B2, “Pyrazolopyrimidines and related heterocycles as CK2 inhibitors” (SENHWA BIOSCIENCES, INC., priority 2009, dated 2016).
pIC50: −log10 of the molar value. Read-outs that look alike come from different tables or passages of the source.

Columns and labels:
[1] = target: CK2 ααββ (Homo sapiens (Human), UniProt P68400); assay: CK2 assay (cell-free, 33P-ATP, phosphocellulose filter plate); assay type: biochemical
[2] = target: recombinant human PIM2 (Homo sapiens (Human), UniProt Q9P1W9); assay: PIM-2 assay (33P-ATP filter binding); assay type: biochemical; settings: for PIM2: % inh […]: at […] compound
[3] = PIM2: IC50 (5 μM ATP), 5 μM ATP

Sequence of CK2 ααββ (P68400 whole entry): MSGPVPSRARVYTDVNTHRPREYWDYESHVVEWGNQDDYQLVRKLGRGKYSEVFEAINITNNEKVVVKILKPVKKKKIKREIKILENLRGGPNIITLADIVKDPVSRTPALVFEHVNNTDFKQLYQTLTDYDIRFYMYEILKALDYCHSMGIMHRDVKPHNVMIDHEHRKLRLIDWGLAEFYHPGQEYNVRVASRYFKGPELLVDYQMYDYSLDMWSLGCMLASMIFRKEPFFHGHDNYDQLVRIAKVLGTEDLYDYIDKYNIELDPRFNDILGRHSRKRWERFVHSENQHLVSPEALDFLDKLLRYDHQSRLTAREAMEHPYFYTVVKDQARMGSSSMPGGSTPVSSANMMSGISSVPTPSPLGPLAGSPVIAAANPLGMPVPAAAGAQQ
Sequence of CK2 ααββ (P67870 whole entry partner): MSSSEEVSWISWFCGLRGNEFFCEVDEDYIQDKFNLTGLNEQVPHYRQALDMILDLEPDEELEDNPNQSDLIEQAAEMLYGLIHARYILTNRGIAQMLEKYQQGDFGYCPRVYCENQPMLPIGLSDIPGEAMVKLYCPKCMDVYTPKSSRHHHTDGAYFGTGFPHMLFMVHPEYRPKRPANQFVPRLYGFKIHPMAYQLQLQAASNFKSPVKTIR
Sequence of recombinant human PIM2 (Q9P1W9 whole entry): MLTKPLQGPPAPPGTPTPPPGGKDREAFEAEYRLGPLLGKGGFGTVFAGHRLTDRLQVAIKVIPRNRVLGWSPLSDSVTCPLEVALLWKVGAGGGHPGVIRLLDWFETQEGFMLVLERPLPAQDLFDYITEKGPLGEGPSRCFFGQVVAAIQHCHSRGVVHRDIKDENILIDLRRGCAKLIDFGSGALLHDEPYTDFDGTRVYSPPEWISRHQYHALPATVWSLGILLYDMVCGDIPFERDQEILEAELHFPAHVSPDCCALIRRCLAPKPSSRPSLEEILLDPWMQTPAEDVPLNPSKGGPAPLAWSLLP

| pIC50 [1] | pIC50 [2, 3] | SMILES | further results |
| --- | --- | --- | --- |
| > 7.00 | 5.69 | CN1CCCN(c2cc(NC3CC3)n3ncc(/C=C4\SC(=O)NC4=O)c3n2)CC1 [Example Q3] | – |
| > 6.00 | 5.95 | O=C1NC(=O)/C(=C/c2cnn3c(NCC4(CO)CCCC4)cc(Nc4cccc(Cl)c4)nc23)N1 [Example R6] | – |
| > 5.70 | 5.66 | O=C1NC(=O)/C(=C/c2cnn3c(NCCN4CCOCC4)cc(Nc4cccc(Cl)c4)nc23)N1 [Example L6] | – |
| > 7.00 | < 5.60 | O=C1NC(=O)/C(=C/c2cnn3c(NC4CC4)cc(-c4ccc(F)c(C(=O)NCCN5CCCC5)c4)nc23)N1 [Example E5] | – |
| > 8.00 | < 5.60 | O=C1NC(=O)/C(=C/c2cnn3c(NC4CC4)cc(Nc4ccc(-n5cccn5)cc4)nc23)N1 [Example R1] | – |
| > 7.00 | – | O=C1NC(=O)/C(=C/c2cnn3c(NCC4(CN5CCCC5)CC4)cc(Nc4cccc(Cl)c4)nc23)N1 [Example A7] | – |
| > 8.00 | – | CC(CNc1cc(Nc2cc(Cl)ccc2F)nc2c(C=C3NC(=O)NC3=O)cnn12)N1CCOCC1 (racemic) [Example 515] | – |
| > 7.00 | < 5.60 | CC(=O)Nc1cccc(Nc2cc(NCC3CC3)n3ncc(/C=C4\NC(=O)NC4=O)c3n2)c1 [Example Y1] | – |
| > 8.00 | 6.06 | O=C1NC(=O)/C(=C/c2cnn3c(NC4CC4)cc(NC4CCNCC4)nc23)N1 [Example W2] | – |
| > 6.00 | 6.53 | O=C1NC(=O)/C(=C/c2cnn3c([S+]([O-])Cc4ccccc4)cc(Nc4cccc(Cl)c4)nc23)N1 (stereo not shown) [Example Z5] | – |
| > 7.00 | – | CN1CCN(CC2(CNc3cc(Nc4cccc(Cl)c4)nc4c(/C=C5\NC(=O)NC5=O)cnn34)CC2)CC1 [Example Y6] | – |
| > 8.00 | < 5.60 | O=C1NC(=O)/C(=C/c2cnn3c(NC4CC4)cc(Nc4ccccn4)nc23)N1 [Example O1] | – |
| > 6.00 | – | Cc1c(N2CCN(c3ncccc3C#N)CC2)nc2c(C=C3NC(=O)NC3=O)cnn2c1NC1CC1 [Example R46] | PIM2: % inh […] [2]: 68.545% |
| > 6.00 | – | CCOCC1(CNc2cc(Nc3cccc(Cl)c3)nc3c(/C=C4\NC(=O)NC4=O)cnn23)CC1 [Example X6] | – |
| > 7.00 | 6.27 | CN(C)C(=O)N[C@H]1CC[C@H](Nc2cc(NC3CC3)n3ncc(/C=C4\NC(=O)NC4=O)c3n2)CC1 [Example B3] | – |
| > 8.00 | < 5.60 | COc1cccc(Nc2cc(NC3CC3)n3ncc(/C=C4\NC(=O)NC4=O)c3n2)c1Cl [Example P1] | – |
| > 7.00 | – | O=C1NC(=O)/C(=C/c2cnn3c(NCC4CC4)cc(Nc4cccc(O)c4)nc23)N1 [Example B2] | – |
| > 6.00 | 6.38 | O=C1NC(=O)/C(=C/c2cnn3c(NCc4ccccn4)cc(Nc4cccc(Cl)c4)nc23)N1 [Example H6] | – |
| > 7.00 | – | Cc1cccc(Nc2cc(NCC3CC3)n3ncc(/C=C4\NC(=O)NC4=O)c3n2)c1 [Example A2] | – |
| > 7.00 | < 5.60 | COC(=O)N1CCC(Nc2cc(Nc3cccc(Cl)c3)nc3c(/C=C4\NC(=O)NC4=O)cnn23)CC1 [Example T5] | – |
| > 6.00 | 5.87 | O=C1NC(=O)/C(=C/c2cnn3c(NCc4ccncc4)cc(Nc4cccc(Cl)c4)nc23)N1 [Example E6] | – |
| > 7.00 | – | O=C1NC(=O)/C(=C/c2cnn3c(NCC4CC4)cc(Nc4ccc(Cl)cc4)nc23)N1 [Example I2] | – |
| > 6.00 | – | Cc1c(N2CCN(c3ncccc3C#N)CC2)nc2c(C=C3SC(=O)NC3=O)cnn2c1NC1CC1 [Example T46] | PIM2: % inh […] [2]: 50.998% |
| > 8.00 | – | O=C1NC(=O)C(=Cc2cnn3c(NC4CC4)nc(OCc4ccccn4)nc23)N1 [Compound M36] | pIC50 ([2]; read-out: PIM2: IC50): < 6.00 |
| > 6.00 | 6.66 | O=C1NC(=O)/C(=C/c2cnn3c(NC4CC4)cc(-c4ccnc(F)c4)nc23)S1 [Example I5] | – |

| pIC50 [1] | pIC50 [2, 3] | SMILES | further results |
| --- | --- | --- | --- |
| > 7.00 | < 5.60 | CC(C)(C)OC(=O)N1CCCC1CNc1cc(Nc2cccc(Cl)c2)nc2c(/C=C3\NC(=O)NC3=O)cnn12 (stereo not shown) [Example N6] | – |
| > 7.00 | – | O=C1NC(=O)/C(=C/c2cnn3c(NCC4CC4)cc(Nc4cccc(S(=O)(=O)N5CCCC5)c4)nc23)N1 [Example F2] | – |
| > 7.00 | – | CC(C)(C)OC(=O)N1CCC(CNc2cc(Nc3cccc(Cl)c3)nc3c(/C=C4\NC(=O)NC4=O)cnn23)CC1 [Example T6] | – |
| > 7.00 | – | O=C1NC(=O)/C(=C/c2cnn3c(NCC4CC4)cc(Nc4cccc(CN5CCOCC5)c4)nc23)N1 [Example C2] | – |
| > 6.00 | 5.74 | O=C1NC(=O)/C(=C/c2cnn3c(NC4CC4)cc(N4CCN(c5ccccn5)CC4)nc23)S1 [Example R3] | – |
| > 8.00 | – | CNC(=O)c1cccc(Nc2cc(NCC3CC3)n3ncc(/C=C4\NC(=O)NC4=O)c3n2)c1 [Example G2] | – |
| > 7.00 | – | CC(C)(CO)CNc1cc(Nc2cccc(Cl)c2)nc2c(/C=C3\NC(=O)NC3=O)cnn12 [Example V6] | – |
| > 7.00 | 6.06 | N[C@H]1CC[C@H](Nc2cc(NC3CC3)n3ncc(/C=C4\NC(=O)NC4=O)c3n2)CC1 [Example R2] | – |
| > 7.00 | 6.68 | O=C1NC(=O)/C(=C/c2cnn3c([S+]([O-])Cc4ccccc4)cc(-c4cccc(Cl)c4)nc23)N1 (stereo not shown) [Example A6] | – |
| > 8.00 | – | CC(=O)NC1CCC(Nc2cc(NC3CC3)n3ncc(/C=C4\NC(=O)NC4=O)c3n2)CC1 (stereo not shown) [Example D3] | pIC50 ([2]; read-out: PIM2: IC50 (5 μM ATP), 5 μM ATP): 6.32 |
| > 6.00 | < 5.60 | CN(C)CC(C)(C)CNc1cc(Nc2cccc(Cl)c2)nc2c(/C=C3\NC(=O)NC3=O)cnn12 [Example M6] | – |
| > 6.00 | < 5.60 | CCN1CCC(Nc2cc(Nc3cccc(Cl)c3)nc3c(/C=C4\NC(=O)NC4=O)cnn23)CC1 [Example W5] | – |
| > 6.00 | < 5.60 | CC(O)CN1CCC(Nc2cc(Nc3cccc(Cl)c3)nc3c(/C=C4\NC(=O)NC4=O)cnn23)CC1 (stereo not shown) [Example U5] | – |
| > 7.00 | – | O=C1NC(=O)/C(=C/c2cnn3c(NCC4CC4)cc(Nc4ccc(F)c(Cl)c4)nc23)N1 [Example D2] | – |
| > 7.00 | 6.09 | COc1cccc(-c2cc(NC3CC3)n3ncc(/C=C4\SC(=O)NC4=O)c3n2)c1 [Example H5] | – |
| > 7.00 | – | O=C1NC(=O)/C(=C/c2cnn3c(NCC4(CN5CCOCC5)CC4)cc(Nc4cccc(Cl)c4)nc23)N1 [Example Z6] | – |
| > 6.00 | 5.65 | O=C1NC(=O)/C(=C/c2cnn3c(SCc4ccccc4)cc(Nc4cccc(Cl)c4)nc23)N1 [Example X5] | – |
| > 7.00 | 5.66 | CC(C)CN1CCC(Nc2cc(Nc3cccc(Cl)c3)nc3c(/C=C4\NC(=O)NC4=O)cnn23)CC1 [Example R5] | – |
| > 7.00 | < 5.60 | CCOC(=O)c1cc(F)cc(Nc2cc(NCC3CC3)n3ncc(/C=C4\NC(=O)NC4=O)c3n2)c1 [Example U1] | – |
| > 8.00 | – | O=C1NC(=O)/C(=C/c2cnn3c(NCC4CC4)cc(Nc4ccncc4)nc23)N1 [Example E2] | – |
| > 7.00 | – | NCc1cccc(Nc2cc(NCC3CC3)n3ncc(/C=C4\NC(=O)NC4=O)c3n2)c1 [Example Z1] | – |
| > 7.00 | – | O=C1NC(=O)/C(=C/c2cnn3c(Nc4cc[nH]n4)cc(Nc4cccc(Cl)c4)nc23)N1 [Example S6] | – |
| > 6.00 | – | CC(C)C(CNc1cc(Nc2cccc(Cl)c2)nc2c(/C=C3\NC(=O)NC3=O)cnn12)N(C)C (stereo not shown) [Example W6] | – |
| > 8.00 | – | O=C1NC(=O)/C(=C/c2cnn3c(NCC4CC4)cc(Nc4ccc(Cl)cn4)nc23)N1 [Example H2] | – |
